Data published in patent US20170022171A1, “2,5-DISUBSTITUTED CYCLOPENTANECARBOXYLIC ACIDS AND THEIR USE” (Bayer Pharma Aktiengesellschaft, priority 2014, published 2017).
pIC50: −log10 of the molar value.

Columns and labels:
Format in all cases: biochemical
[1] = molecular target: T1, mouse MMP-8 (Mus musculus, UniProt O70138); test: In vitro mouse MMP-8 inhibition test
T1 construct: purchased R&D Systems 2904-MP
Description: (§1) The MMP-mediated amidolytic cleavage of a suitable peptide substrate leads to an increase in fluorescent light here too. The signal intensity of the fluorescent light is directly proportional to the enzyme activity. The active concentration of a test compound at which half the enzyme is inhibited (50% signal intensity of the fluorescent light) is reported as the IC50 value.
(§2) Recombinant mouse MMP-8 (from R&D Systems, 2904-MP) is chemically activated in accordance with the manufacturer's instructions using APMA. 1 μl of the test compound to be analysed (as a solution in DMSO, suitable concentrations, for example, 1 nM to 30 μM) is pipetted into 24 μl of activated enzyme (final concentration, for example, 2 nM) in reaction buffer (50 mM Tris/HCl pH 7.5, 10 mM CaCl2, 150 mM NaCl, 0.05% Brij®-35) in a white 384-hole microtiter plate (MTP). The enzymatic reaction is started by adding the intramolecularly quenched Mca-Lys-Pro-Leu-Gly-Leu-Dpa(Dnp)-Ala-Arg-NH2 substrate (final concentration, for example, 5 μM; R&D Systems, ES-010), so as to result in a total test volume of 50 μl. The course of the MMP-8 reaction is measured by measuring the fluorescence intensity (excitation 320 nm, emission 410 nm) over a suitable period of time (for example over 120 min at a temperature of 32° C.).

[2] = molecular target: T2, mouse MMP-9 (Mus musculus, UniProt P41245); test: In vitro mouse MMP-9 inhibition test
T2 construct: purchased R&D Systems 909-MP
Description: as §1
(§3) Recombinant mouse MMP-9 (from R&D Systems, 909-MP) is chemically activated in accordance with the manufacturer's instructions using APMA. 1 μl of the test compound to be analysed (as a solution in DMSO, suitable concentrations, for example, 1 nM to 30 μM) is pipetted into 24 μl of activated enzyme (final concentration, for example, 0.1 nM) in reaction buffer (50 mM Tris/HCl pH 7.5, 10 mM CaCl2, 150 mM NaCl, 0.05% Brij®-35) in a white 384-hole microtiter plate (MTP). The enzymatic reaction is started by adding the intramolecularly quenched Mca-Pro-Leu-Gly-Leu-Dpa(Dnp)-Ala-Arg-NH2 substrate (final concentration, for example, 5 μM; R&D Systems, ES-001), so as to result in a total test volume of 50 The course of the MMP-9 reaction is measured by measuring the fluorescence intensity (excitation 320 nm, emission 410 nm) over a suitable period of time (for example over 120 min at a temperature of 32° C.).

[3] = molecular target: T3, mouse MMP-7 (Mus musculus, UniProt Q10738); test: In vitro mouse MMP-7 inhibition test
T3 construct: purchased R&D Systems 2967-MP
T3 sequence (Q10738 95-264): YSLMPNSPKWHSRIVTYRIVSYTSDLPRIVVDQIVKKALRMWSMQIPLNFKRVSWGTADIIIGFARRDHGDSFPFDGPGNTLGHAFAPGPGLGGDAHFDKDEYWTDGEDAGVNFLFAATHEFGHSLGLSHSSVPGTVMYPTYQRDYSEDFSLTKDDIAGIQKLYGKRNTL
Description: as §1
as §2, with “mouse MMP-7” for “mouse MMP-8”, “Systems, 2967-MP)” for “Systems, 2904-MP)”, “example, 0.5” for “example, 2”, “the MMP-7” for “the MMP-8”

[4] = molecular target: T4, mouse MMP-2 (Mus musculus, UniProt P33434); test: In vitro mouse MMP-2 inhibition test
T4 construct: purchased R&D Systems 924-MP
Description: as §1
as §3, with “mouse MMP-2” for “mouse MMP-9”, “Systems, 924-MP)” for “Systems, 909-MP)”, “example, 10” for “example, 5”, “the MMP-2” for “the MMP-9”

[5] = molecular target: T5, mouse MMP-12 (Mus musculus, UniProt P34960); test: In vitro mouse MMP-12 inhibition test (standard or high-sensitivity)
T5 construct: purchased R&D Systems 3467-MP
Description: as §1
Recombinant mouse MMP-12 (from R&D Systems, 3467-MP) is autocatalytically activated in accordance with the manufacturer's instructions. 1 μl of the test compound to be analysed (as a solution in DMSO, suitable concentrations, for example, 1 nM to 30 μM) is pipetted into 24 μl of activated enzyme (final concentration, for example, 1 nM) in reaction buffer (50 mM Tris/HCl pH 7.5, 10 mM CaCl2, 150 mM NaCl, 0.05% Brij®-35) in a white 384-hole microtiter plate (MTP). The enzymatic reaction is started by adding the intramolecularly quenched Mca-Lys-Pro-Leu-Gly-Leu-Dpa(Dnp)-Ala-Arg-NH2 substrate (final concentration, for example, 5 μM; R&D Systems, ES-010), so as to result in a total test volume of 50 The course of the MMP-12 reaction is measured by measuring the fluorescence intensity (excitation 320 nm, emission 410 nm) over a suitable period of time (for example over 120 min at a temperature of 32° C.).
In this case, an enzyme concentration ten times lower is used (final concentration, for example, 0.1 nM) in order to achieve an elevated test sensitivity. The incubation period chosen for the test is correspondingly longer (for example 16 hours).

T4 sequence (P33434 110-662): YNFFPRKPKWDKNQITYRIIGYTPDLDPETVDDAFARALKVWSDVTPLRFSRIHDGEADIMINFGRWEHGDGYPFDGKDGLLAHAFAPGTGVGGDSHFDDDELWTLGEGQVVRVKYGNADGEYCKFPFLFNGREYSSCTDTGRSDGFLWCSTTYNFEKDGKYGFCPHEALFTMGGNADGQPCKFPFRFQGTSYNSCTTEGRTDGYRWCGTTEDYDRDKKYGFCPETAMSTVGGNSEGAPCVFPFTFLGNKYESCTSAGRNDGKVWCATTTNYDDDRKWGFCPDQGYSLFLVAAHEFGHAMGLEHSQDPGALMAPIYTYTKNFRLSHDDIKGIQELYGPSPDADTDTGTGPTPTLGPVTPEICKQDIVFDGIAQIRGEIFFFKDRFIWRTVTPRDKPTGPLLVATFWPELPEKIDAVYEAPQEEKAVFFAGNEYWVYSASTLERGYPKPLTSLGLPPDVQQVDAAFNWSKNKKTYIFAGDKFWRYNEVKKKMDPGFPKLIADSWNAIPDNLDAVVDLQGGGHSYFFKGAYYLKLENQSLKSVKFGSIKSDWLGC
T5 sequence (P34960 110-473): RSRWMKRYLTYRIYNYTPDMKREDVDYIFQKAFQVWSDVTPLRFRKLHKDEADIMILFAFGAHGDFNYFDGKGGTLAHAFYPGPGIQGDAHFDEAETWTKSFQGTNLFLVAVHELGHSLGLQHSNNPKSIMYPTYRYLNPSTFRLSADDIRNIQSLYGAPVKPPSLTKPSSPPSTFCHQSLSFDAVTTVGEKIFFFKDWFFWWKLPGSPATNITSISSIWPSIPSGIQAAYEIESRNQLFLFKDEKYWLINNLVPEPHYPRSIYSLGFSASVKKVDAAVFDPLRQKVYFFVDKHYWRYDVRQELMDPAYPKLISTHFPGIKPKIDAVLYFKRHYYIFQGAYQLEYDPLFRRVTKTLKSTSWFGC
T2 sequence (P41245 108-730): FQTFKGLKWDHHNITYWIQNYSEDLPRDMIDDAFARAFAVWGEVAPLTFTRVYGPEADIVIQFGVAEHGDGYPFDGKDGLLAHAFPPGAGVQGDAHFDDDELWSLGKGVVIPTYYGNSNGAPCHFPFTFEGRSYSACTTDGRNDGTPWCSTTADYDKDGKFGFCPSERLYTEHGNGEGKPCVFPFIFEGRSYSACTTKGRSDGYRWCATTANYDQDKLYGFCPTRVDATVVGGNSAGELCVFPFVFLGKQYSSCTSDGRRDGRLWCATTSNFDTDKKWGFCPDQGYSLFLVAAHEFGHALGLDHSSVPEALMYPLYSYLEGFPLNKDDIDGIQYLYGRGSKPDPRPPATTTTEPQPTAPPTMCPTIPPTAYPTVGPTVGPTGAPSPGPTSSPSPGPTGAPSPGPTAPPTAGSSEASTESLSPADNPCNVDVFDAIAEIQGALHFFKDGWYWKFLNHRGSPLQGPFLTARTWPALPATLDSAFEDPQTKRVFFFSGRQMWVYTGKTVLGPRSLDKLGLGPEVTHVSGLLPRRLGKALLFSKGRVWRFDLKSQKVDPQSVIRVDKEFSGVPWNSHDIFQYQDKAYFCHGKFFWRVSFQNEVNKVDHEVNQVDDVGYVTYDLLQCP
T1 sequence (O70138 101-465): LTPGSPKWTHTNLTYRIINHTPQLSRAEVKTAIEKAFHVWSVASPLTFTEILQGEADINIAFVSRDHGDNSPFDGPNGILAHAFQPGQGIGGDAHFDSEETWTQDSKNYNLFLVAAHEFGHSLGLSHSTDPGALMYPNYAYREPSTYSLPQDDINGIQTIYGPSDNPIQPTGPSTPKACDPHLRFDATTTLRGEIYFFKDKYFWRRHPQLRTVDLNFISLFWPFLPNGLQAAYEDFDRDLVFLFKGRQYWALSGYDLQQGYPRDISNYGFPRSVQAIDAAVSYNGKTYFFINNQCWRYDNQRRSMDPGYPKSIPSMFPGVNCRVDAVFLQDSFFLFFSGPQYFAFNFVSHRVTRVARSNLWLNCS

Compound | pIC50 [1] | pIC50 [2] | pIC50 [3] | pIC50 [4] | pIC50 [5]
O=C(O)[C@@H]1[C@@H](Cn2nnc3ccc(C(F)(F)F)cc3c2=O)CC[C@H]1C(=O)c1ccc(SCc2cccc(Cl)c2)cc1 (single isomer, unassigned) [Example 77, (+)-(1RS,2RS,5SR)-2-{4-[(3-Chlorobenzyl)sulphanyl]benzoyl}-5-{[4-oxo-6-(trifluoromethyl)-1,2,3-benzotriazin-3(4H)-yl]methyl}cyclopentanecarboxylic acid] | 6.89 | 4.64 | 7.27 | 5.85 | 8.70
Cc1cccc(COc2ccc(C(=O)[C@H]3CC[C@@H](Cn4nnc5ccc(C)cc5c4=O)[C@@H]3C(=O)O)cc2)c1 (racemic) [Example 97, (+/−)-(1RS,2RS,5SR)-2-{4-[(3-Methylbenzyl)oxy]benzoyl}-5-[(6-methyl-4-oxo-1,2,3-benzotriazin-3(4H)-yl)methyl]cyclopentanecarboxylic acid] | 5.89 | 5.80 | 6.80 | 5.72 | 8.21
O=C(O)[C@H]1[C@H](Cn2nnc3ccc(C(F)(F)F)cc3c2=O)CC[C@@H]1C(=O)c1ccc(OCC2CCCCC2)cc1 (racemic) [Example 40, (+/−)-(1RS,2RS,5SR)-2-[4-(Cyclohexylmethoxy)benzoyl]-5-{[4-oxo-6-(trifluoromethyl)-1,2,3-benzotriazin-3(4H)-yl]methyl}cyclopentanecarboxylic acid] | 7.60 | 6.19 | 6.66 | 6.24 | 8.72
Cc1ccc2nnn(C[C@H]3CC[C@@H](C(=O)c4ccc(OCc5cccc(Cl)c5)cc4)[C@@H]3C(=O)O)c(=O)c2c1 (single isomer, unassigned) [Example 104, (+)-(1RS,2RS,5SR)-2-{4-[(3-Chlorobenzyl)oxy]benzoyl}-5-[(6-methyl-4-oxo-1,2,3-benzotriazin-3(4H)-yl)methyl]cyclopentanecarboxylic acid] | 6.89 | 6.48 | 7.70 | 6.54 | 8.96
Cc1cccc(COc2ccc(C(=O)[C@@H]3CC[C@H](Cn4nnc5ccc(C)cc5c4=O)[C@H]3C(=O)O)cc2)c1 (single isomer, unassigned) [Example 98, (+)-(1RS,2RS,5SR)-2-{4-[(3-Methylbenzyl)oxy]benzoyl}-5-[(6-methyl-4-oxo-1,2,3-benzotriazin-3(4H)-yl)methyl]cyclopentanecarboxylic acid] | 6.55 | 6.34 | 7.54 | 6.19 | 8.92

The remaining lines, values ahead:

pIC50 [1] | pIC50 [2] | pIC50 [3] | pIC50 [4] | pIC50 [5] | Compound
5.96 | < 4.40 | 7.09 | 5.09 | 8.24 | (+)-(1RS,2SR,5RS)-2-{[4-Oxo-6-(trifluoromethyl)-1,2,3-benzotriazin-3(4H)-yl]methyl}-5-{4-[(2-phenylethy)sulphanyl]benzoyl}cyclopentanecarboxylic acid [Example 83]
6.38 | 5.96 | 6.66 | 5.96 | 9.14 | Cc1ccc2nnn(C[C@H]3CC[C@@H](C(=O)c4ccc(OCc5cccc(OC(F)(F)F)c5)cc4)[C@@H]3C(=O)O)c(=O)c2c1 (single isomer, unassigned) [Example 110, (+)-(1RS,2SR,5RS)-2-[(6-Methyl-4-oxo-1,2,3-benzotriazin-3(4H)-yl)methyl]-5-(4-{[3-(trifluoromethoxy)benzyl]oxy}benzoyl)cyclopentanecarboxylic acid]
6.92 | 5.60 | 6.85 | 6.00 | 8.15 | (+)-(1RS,2RS,5SR)-2-{4-[(3,4-Dichlorobenzyl)oxy]benzoyl}-5-{[4-oxo-6-(trifluoromethyl)-1,2,3-benzotriazin-3(4H)-yl]methyl}cyclopentanecarboxylic acid [Example 28]
7.38 | 7.21 | 6.80 | 7.00 | 8.85 | O=C(O)[C@H]1[C@H](Cn2nnc3ccccc3c2=O)CC[C@@H]1C(=O)c1ccc(OCC2CCCC2)cc1 (racemic) [Example 4, (+/−)-(1RS,2RS,5SR)-2-[4-(Cyclopentylmethoxy)benzoyl]-5-[(4-oxo-1,2,3-benzotriazin-3(4H)-yl)methyl]cyclopentanecarboxylic acid]
7.74 | 7.51 | 7.34 | 7.85 | 9.21 | O=C(O)[C@H]1[C@H](Cn2nnc3ccccc3c2=O)CC[C@@H]1C(=O)c1ccc(OCc2ccc(F)cc2)cc1 (racemic) [Example 1, (+/−)-(1RS,2RS,5SR)-2-{4-[(4-Fluorobenzyl)oxy]benzoyl}-5-[(4-oxo-1,2,3-benzotriazin-3(4H)-yl)methyl]cyclopentanecarboxylic acid]
7.74 | 7.21 | 7.64 | 6.60 | 8.74 | O=C(O)[C@H]1[C@H](Cn2nnc3ccc(C(F)(F)F)cc3c2=O)CC[C@@H]1C(=O)c1ccc(OCc2ccccc2)cc1 (racemic) [Example 11, (+/−)-(1RS,2RS,5SR)-2-[4-(Benzyloxy)benzoyl]-5-{[4-oxo-6-(trifluoromethyl)-1,2,3-benzotriazin-3(4H)-yl]methyl}cyclopentanecarboxylic acid]
